Laboratory results published in PMC8218751, “Visualizing Borrelia burgdorferi Infection Using a Small-Molecule Imaging Probe” (Journal of Clinical Microbiology, 2021).

Tests used:
B. burgdorferi [1] = experiment: B. burgdorferi live bacterial imaging; assay type: cell-based, Borrelia burgdorferi
Protocol: B. burgdorferi strain B31 was obtained from ATCC (ATCC catalog number ATCC-35210). Cultures were grown in Barbour-Stoenner-Kelly medium (BSK-II) created using the Barbour protocol ([19]) without gelatin and supplemented with 6 % rabbit serum (Pel-Freez catalog number 31128-5) at 34°C. Low-passage-number cultures (less than 4) were utilized. Later-stage morphological variants were obtained by increasing culture time to approximately 8 days to achieve a density of ∼10^8/ml counted under dark-field microscopy.
[…] germ agglutinin (WGA) conjugated with Alexa 488 at 10 μg per ml (Biotium catalog number 29022), and cells were then washed with fresh medium and mounted with Prolong Gold with 4′,6-diamidino-2-phenylindole (DAPI). Samples were imaged on a Zeiss Axio Imager upright microscope, using 63× oil objective, and visible light for differential […] contrast (DIC) imaging and excitation at 405, 488, or 633 nm for detection of DAPI, fluorescein isothiocyanate (FITC), or HS-198, respectively.

B. burgdorferi [2] = experiment: In vivo mouse model of B. burgdorferi infection, imaging of tissue sections; set-up: species or system mice; conditions: 25 nmol via tail vein, 3 weeks after infection, 6 h postinjection; ear, tibiotarsal joint, spleen
Protocol: Ten-micrometer sections of frozen tissues were incubated with WGA (Biotium catalog number 29077) for 1 h in PBS. Tissues were washed and fixed with 3:1 methanol to acetic acid. Slides were incubated with FITC-conjugated B. burgdorferi polyclonal antibody (ThermoFisher, catalog number PA1-73005) for 1 h at room temperature. Noninjected or infected tissues were washed and incubated with 1 μM HS-198 for 30 min as control, and injected tissues were not incubated with HS-198. Slides were washed and mounted with DAPI Prolong Gold. Image studies were performed on a Zeiss Axio Imager upright microscope, using 63× oil objective, and visible light for DIC imaging and excitation at 405, 488, or 633 nm for detection of DAPI, FITC, or HS-198, respectively. Images were analyzed using FIJI software.
Seven C3H/HeN (Charles River Laboratories) female mice, 36 to 42 days old, were anesthetized with isoflurane gas, 1.5 to 2%. Mice were infected with 500,000 logarithmic-stage B. burgdorferi strain N40 spirochetes in <0.5 ml sterile saline by subcutaneous injection in the nape of the neck via 25-gauge needle. The N40 strain was selected for its infection kinetics and inflammatory pathology. The strain was obtained from an archival stock acquired by the Philip lab and was maintained exactly like strain B31 ([21]). […]

Structure (SMILES): Cc1nn(-c2ccc(C(=O)N(C)C)c(NCCCOCCOCCOCCOCCOCCCNCc3ccc(C(=C\C=C4/N(CCCCS(=O)(=O)O)c5ccccc5C4(C)C)/C=C/C4=[N+](CCCCS(=O)(=O)[O-])c5ccccc5C4(C)C)cc3)c2)c2c1C(=O)CC(C)(C)C2 [HS-198]
- Uptake, share of B. burgdorferi spirochetes (B. burgdorferi [1]; 10 μM, incubated 1 h): > 90%
- Accumulation in B. burgdorferi morphological states (B. burgdorferi [1]; 10 μM, spirochetes, blebs, aggregates, colocalization with DAPI): accumulates in B. burgdorferi in all of its morphological states
- Effect on B. burgdorferi morphology or motility (B. burgdorferi [1]; overnight incubation, live B. burgdorferi): does not appear to affect
- Detection of B. burgdorferi in tissue sections of infected mice (B. burgdorferi [2]): localization to sites of B. burgdorferi infection in mice
